Among the test systems are M14 melanoma; MALME-3M melanoma; MDA-MB-435; NCI-H23 lung; NCI-H522 lung; PC-3 prostate; SN12C renal; SR leukemia; T-47D breast; U251 CNS.
What all share (assay): DTP human tumour cell line panel, 48 h

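Five compound concentrations were applied to cells in 96-well plates for 48 hours; endpoints were derived by simple linear interpolation of the resulting dose-response curve. TGI denotes the concentration required for complete inhibition of growth.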 Bounds are passed on as bounds.

Results on 14 compounds are retold here after PubChem BioAssay (NCI).

Broadly, the TGI is the concentration at which net growth stops. A higher TGI goes with lower sensitivity of the cells.

For the compound `Oc1ccc2ccccc2c1/C=C/c1ccc2c(Br)cc(Br)c(O)c2n1`, the TGI in the test with M14 melanoma was 26.5 µM; in the test with MALME-3M melanoma, 32 µM; with MDA-MB-435 it was 36.2 µM; in the test with NCI-H23 lung, 24.7 µM; in the test with NCI-H522 lung, 14.3 µM; with PC-3 prostate it was 18.9 µM. The TGI was 20.9 µM in the test on SN12C renal, more than 40.4 µM with SR leukemia, 35.4 µM in the test on T-47D breast and 21.6 µM in the test with U251 CNS.
In the case of `COc1nc(C(=O)NNC(=O)c2nc(OC)c3ccccc3c2-c2ccccc2)c(-c2ccccc2)c2ccccc12`, the TGI in the test with M14 melanoma, with MALME-3M melanoma, in the test on MDA-MB-435, with NCI-H23 lung, with NCI-H522 lung and with PC-3 prostate was more than 100 µM throughout. For the same compound, the TGI with SN12C renal, in the test with SR leukemia, in the test with T-47D breast and in the test with U251 CNS was more than 100 µM each time.
For `CCOC(=O)C1(Cc2ccc3c(c2)CCC3)Cc2cc3c(cc2C1)CCC3`, the TGI in the test on M14 melanoma is 55.9 µM; with MALME-3M melanoma it was more than 100 µM; in the test with MDA-MB-435, more than 100 µM; with NCI-H23 lung it was more than 100 µM; with NCI-H522 lung, 75.5 µM; with PC-3 prostate, more than 100 µM. In addition, the TGI with SN12C renal is more than 100 µM; in the test on SR leukemia it was more than 100 µM; in the test with T-47D breast, 50.7 µM; with U251 CNS, more than 100 µM.
For `N#C/C(C(=O)Nc1ccccc1)=C(/N)N1CCOCC1`, the TGI in the test with M14 melanoma, in the test on MDA-MB-435, with NCI-H23 lung, with PC-3 prostate, in the test with SN12C renal and with SR leukemia was more than 100 µM in each case. Also, the TGI in the test with T-47D breast and in the test on U251 CNS was more than 100 µM in each case.
With `CCc1nc(N)nc(N)c1-c1ccc2nn(-c3ccccc3)[n+]([O-])c2c1`, the TGI in the test on M14 melanoma was found to be 18.8 µM; with MALME-3M melanoma, 22.7 µM; with MDA-MB-435 it was 19.5 µM; in the test on NCI-H23 lung, 18.2 µM; in the test with NCI-H522 lung it was 11.6 µM; in the test on PC-3 prostate it was 23.4 µM. For the same compound, the TGI in the test with SN12C renal was determined as 24.4 µM; in the test with SR leukemia it was 34.1 µM; with T-47D breast it was 31.7 µM; in the test on U251 CNS, 22.1 µM.
For the compound `CCn1c(-c2cc(OC)cc(OC)c2)nc2c1C(=O)c1ccccc1C2=O`, the TGI in the test with M14 melanoma is more than 100 µM; in the test on MALME-3M melanoma, more than 100 µM; in the test on MDA-MB-435 it was more than 100 µM; in the test on NCI-H23 lung, more than 100 µM; in the test on NCI-H522 lung, 87.9 µM; in the test on PC-3 prostate it was more than 100 µM. Further, the TGI in the test with SN12C renal, with SR leukemia, in the test with T-47D breast and in the test with U251 CNS was more than 100 µM throughout.
On to `CC(=O)n1nc(-c2ccccc2)n(/N=C/c2ccc([N+](=O)[O-])cc2)c1=O`, for which the TGI in the test with M14 melanoma, in the test on MALME-3M melanoma, with MDA-MB-435, in the test on NCI-H23 lung, with NCI-H522 lung and in the test with PC-3 prostate was more than 100 µM each time. Besides, the TGI in the test with SN12C renal, with SR leukemia, with T-47D breast and in the test on U251 CNS was more than 100 µM in each case.
As for `CC(=O)NC1C(OCc2ccccc2)OC(CO)C(O)C1OC(C)C(=O)NC(C)C(=O)NC(CCC(=O)NCCCNc1c2ccccc2nc2cccc([N+](=O)[O-])c12)C(N)=O` (stereo not given), the TGI with M14 melanoma is 3.97 µM; in the test on MALME-3M melanoma, 7.61 µM; with MDA-MB-435, 2.65 µM; in the test with NCI-H23 lung, 11.8 µM; with NCI-H522 lung, 4.05 µM; with SN12C renal it was 11 µM. In addition, the total growth inhibition concentration (TGI) in the test on SR leukemia is more than 100 µM; in the test on T-47D breast it was more than 100 µM; in the test on U251 CNS it was 12.8 µM.
Take `CN(C)Cc1cc(C(=O)/C=C/c2ccc(Cl)cc2)cc(CN(C)C)c1O`: the TGI with MALME-3M melanoma is 24.8 µM; with MDA-MB-435, 26.5 µM; in the test with NCI-H23 lung it was 39.4 µM; in the test on NCI-H522 lung it was 10.8 µM; in the test on PC-3 prostate, 24.7 µM; with SN12C renal, 28.1 µM. Further, the TGI with SR leukemia was 45.7 µM; in the test on T-47D breast it was more than 100 µM; in the test with U251 CNS, 28 µM.
For the compound `COc1cc(-c2cc(=O)c3c(OC)c(OC)c(OC)c(OC)c3o2)c(OC)c(OC)c1OC`, the TGI was more than 100 µM with M14 melanoma; more than 100 µM with MALME-3M melanoma; more than 100 µM in the test on MDA-MB-435; 94.6 µM with NCI-H522 lung; 50.1 µM with PC-3 prostate; more than 100 µM in the test on SN12C renal. Further, the figures for the TGI in the test with SR leukemia, in the test with T-47D breast and in the test with U251 CNS were more than 100 µM, 51 µM and more than 100 µM, respectively.
Consider `CCOC(=O)C1=C(C)N(C)C23OC4(C(=O)OC)CC2c2ccccc2C1N3C4=O` (stereo not given), for which the total growth inhibition concentration (TGI) with M14 melanoma, in the test with MALME-3M melanoma, in the test with MDA-MB-435, in the test on NCI-H23 lung, in the test with NCI-H522 lung and with PC-3 prostate was more than 100 µM each time. Moreover, the TGI in the test with SN12C renal, with SR leukemia, in the test with T-47D breast and in the test with U251 CNS was more than 100 µM in each case.
As to `CC1=C(C#N)C(C#N)(C#N)C(NN(C)C)C1` (stereo not given), the TGI with M14 melanoma is more than 100 µM; with MALME-3M melanoma, 98.2 µM; with MDA-MB-435, 75 µM; in the test on NCI-H23 lung, 40.8 µM; in the test on NCI-H522 lung, 24.8 µM; in the test with PC-3 prostate, 46.6 µM. The TGI was 27.3 µM in the test with SN12C renal, more than 100 µM with SR leukemia, 27.8 µM with T-47D breast and more than 100 µM with U251 CNS.
As for `CC(C)(C)OC(=O)NCC(O)CNC(=O)OC(C)(C)C`, the TGI in the test with M14 melanoma, in the test with MALME-3M melanoma, with MDA-MB-435, with NCI-H23 lung, with NCI-H522 lung and in the test with PC-3 prostate was more than 100 µM throughout. Further, the TGI in the test with SN12C renal, in the test on SR leukemia, in the test on T-47D breast and with U251 CNS was more than 100 µM in each case.
For `COc1ccc(C(=O)Sc2c(-c3ccccc3)c(=O)n(-c3ccccc3)c(=S)n2-c2ccccc2)cc1`, the TGI in the test on M14 melanoma, in the test with MALME-3M melanoma, with MDA-MB-435, in the test on NCI-H23 lung, in the test with NCI-H522 lung and with PC-3 prostate was more than 100 µM each time. Moreover, the TGI in the test on SN12C renal, in the test with SR leukemia, in the test with T-47D breast and with U251 CNS was more than 100 µM throughout.
